# From PubChem BioAssay (NCI)
# Several values for one entry are separate records, joined by “and”; a condition that tells them apart may be missing. Identical values can stand only once.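 48-hour exposure; five concentrations; linearly interpolated endpoints. GI50 is the concentration that inhibits growth by half. TGI marks complete inhibition of growth.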
# How the values were obtained:
# Test in all cases: NCI anticancer screen, dose series, 48 h
# SK-MEL-2 melanoma = test system: SK-MEL-2 melanoma
# M14 melanoma = test system: M14 melanoma
# SN12C renal = test system: SN12C renal
# MCF7 breast = test system: MCF7 breast
# CAKI-1 renal = test system: CAKI-1 renal
# SF-539 CNS = test system: SF-539 CNS
# HT29 colon = test system: HT29 colon
SMILES,GI50 (SK-MEL-2 melanoma),TGI (SK-MEL-2 melanoma),GI50 (M14 melanoma),TGI (M14 melanoma),GI50 (SN12C renal),TGI (SN12C renal),GI50 (MCF7 breast),TGI (MCF7 breast),GI50 (CAKI-1 renal),TGI (CAKI-1 renal),GI50 (SF-539 CNS),TGI (SF-539 CNS),GI50 (HT29 colon),TGI (HT29 colon)
Cc1ccc(-c2nc3sc(C)cn3c2/C=C2\C(=O)Nc3ccc(Cl)cc32)cc1,12.1 µM,28.6 µM,15.5 µM,29.9 µM,15 µM,29.8 µM,7.66 µM,22.3 µM,17 µM,38.2 µM,4.51 µM,17.3 µM,20.3 µM,41.4 µM
COc1ccc2nc3ccccc3c(NCCNCC(C)O)c2c1 (configuration not stated),0.785 µM,2.8 µM,0.356 µM,1.79 µM,0.253 µM,2.22 µM,0.315 µM,4.14 µM,0.434 µM,11.4 µM,0.435 µM,2.04 µM,0.323 µM,1.9 µM
Cc1cc(N2CCOCC2)nc(NCc2cc(Nc3ccnc4cc(Cl)ccc34)ccc2F)n1,1.95 µM,3.61 µM,1.86 µM,3.57 µM,1.83 µM,3.66 µM,0.348 µM,1.5 µM,1.63 µM,3.14 µM,1.79 µM,3.28 µM,0.834 µM,2.24 µM
O=C(C(=CN1CCN(C(=O)c2ccco2)C1=S)C(=O)c1ccccc1)c1ccccc1,12.1 µM,25.6 µM,7 µM,13.8 µM,6.07 µM,14.4 µM,,,6.98 µM,17.2 µM,,,16.9 µM,> 50 µM
COc1cc(C(=O)n2nc(N)c3c(C)cc(C)nc32)cc(OC)c1OC,> 64.1 µM,> 100 µM,> 73.7 µM,> 100 µM,> 100 µM,> 100 µM,10.2 µM,> 100 µM,> 100 µM,> 100 µM,> 23.4 µM,> 100 µM,3.46 µM,> 100 µM
CNc1cc(-c2cccc(OC(F)(F)F)c2)nc2ccc(N3CCCC3)cc12,1.72 µM and 1.69 µM and 1.77 µM,3.19 µM and 3.17 µM and 3.23 µM,1.64 µM and 1.72 µM and 1.69 µM,3.04 µM and 3.24 µM and 3.14 µM,1.76 µM and 1.68 µM and 1.71 µM,3.36 µM and 3.14 µM and 3.26 µM,1.22 µM and 1.65 µM and 1.75 µM,2.88 µM and 3.32 µM and 3.62 µM,1.57 µM and 1.53 µM and 1.6 µM,2.91 µM and 2.88 µM and 2.97 µM,1.72 µM and 1.88 µM and 1.78 µM,3.19 µM and 3.45 µM and 3.22 µM,1.31 µM and 1.61 µM and 1.54 µM,2.69 µM and 3.06 µM and 3.01 µM
COc1ccc(-c2c(-c3ccc(C#N)c(F)c3)nc(N3CCC(N)CC3)n(C)c2=O)cc1F,18.5 µM,38.6 µM,17.5 µM,34.9 µM,19.3 µM,79.3 µM,14.4 µM,34 µM,13.8 µM,30.6 µM,13.8 µM,29.3 µM,10.4 µM,30.2 µM
O=C1C=CC(=O)c2c1nc(CBr)[nH]c2=O,,> 100 µM,,> 100 µM,,> 100 µM,,> 100 µM,,> 100 µM,,> 100 µM,,> 100 µM
CCCCCCCCN=C(NCCCCCCCC)SCc1cccc2ccccc12,2.14 µM,3.77 µM,1.44 µM,2.86 µM,1.27 µM,2.63 µM,1.34 µM,2.8 µM,1.56 µM,2.97 µM,,,0.839 µM,2.16 µM
CCOCCOCCOCCOCCOCCOCCOCCOCCOCCO (tested in a mixture with another compound),1.2 µM,3.81 µM,2.02 µM,7.08 µM,,,1.04 µM,4.58 µM,1.42 µM,18.9 µM,,,1.16 µM,4.36 µM
COc1cc(-c2ccc[nH]2)[nH]c1/C=C1\N=C(C)C(CC(=O)OCC(C)(C)C)=C1C,0.157 µM,0.415 µM,0.212 µM,0.658 µM,,,0.175 µM,1.25 µM,0.263 µM,1.13 µM,0.357 µM,1.6 µM,0.172 µM,1.17 µM
Cn1c(I)c(C#C[Si](C)(C)C)c(=O)[nH]c1=O,14.4 µM,28.3 µM,,,6.66 µM,20.5 µM,6.2 µM,21.5 µM,2.76 µM,9.58 µM,9.28 µM,21.4 µM,2.41 µM,5.64 µM
Cc1c(-c2ccccn2)ccc2ccccc12,,,,> 100 µM,,> 100 µM,,> 100 µM,,> 100 µM,,> 100 µM,,> 100 µM
COc1ccc2c(c1)-c1c(c3cc(OC)ccc3n(CCN(C)C)c1=O)C2=O,,,1.8 µM,10.2 µM,0.32 µM,6.16 µM,0.221 µM,5.3 µM,1.77 µM,18.8 µM,1.99 µM,8.58 µM,0.24 µM,1.2 µM
Clc1ccc(-c2nc(NCc3ccco3)c3ccccc3n2)c(Cl)c1,36.8 µM,> 100 µM,17.4 µM,36.1 µM,16.1 µM,44.9 µM,6.38 µM,> 100 µM,8.82 µM,31 µM,,,,
S=C(SSC(=S)N1CCCCC1)N1CCCCC1,25.1 µM,67.8 µM,8.34 µM,22.9 µM,17.2 µM,50.4 µM,,,18 µM,> 100 µM,14.2 µM,32.6 µM,14.3 µM,29 µM
COc1ccc2nc3ccccc3c(NCCCCN(CCCl)CCCl)c2c1,,2.06 µM,,,,3.13 µM,,5.23 µM,,,,1.26 µM,,> 100 µM
CSc1ccc(C(=O)/C=C/c2ccc(Cl)cc2Cl)cc1,17.6 µM,59.3 µM,21.6 µM,59.6 µM,42.9 µM,> 100 µM,3.68 µM,19.8 µM,33.4 µM,92 µM,22 µM,46.9 µM,,
CCOC(=O)/C=C1/SC(=Nc2ccc(C#N)cc2)N(Cc2ccco2)C1=O,7.65 µM,25.3 µM,2.22 µM,6.55 µM,2.45 µM,6.76 µM,2.7 µM,12.7 µM,,,3.09 µM,12.4 µM,2.11 µM,4.61 µM
O=C1C(Cl)=C(NCCCN(CCCNC2=C(Cl)C(=O)c3ccccc3C2=O)C2=C(Cl)C(=O)c3ccccc3C2=O)C(=O)c2ccccc21,,,,,1.51 µM,3.51 µM,1.48 µM,3.89 µM,,,2.45 µM,6.71 µM,,
